Read-outs that look alike come from different tables or passages of the source.

In one series the target is T1, H^+ /K^+ ATPase (Sus scrofa, UniProt P19156).
T1 construct: prepared from the stomach of pig; from tissue; host or cells: stomach of pig
Put plainly: H^+ /K^+ ATPase Inhibitory Activity Assay. Format: biochemical, pig. The conditions noted are these: for inhibition at 20 µg/mL: 20 μg/ml; for inhibition at 10 µg/mL / inhibition at 5 µg/mL: read-out: H^+ /K^+ ATPase % Inhibition. How it is done: The inhibitory activity was determined in the following manner using H^+ /K^+ ATPase prepared from the stomach of pig.
H^+ /K^+ ATPase dilute solution (100 μl, 50 μg as protein) was added to PIPES-tris (pH 6.2) buffer solution (440 μl) containing 4 mM magnesium chloride and 20 mM potassium chloride. Further, 0.1% ethanol solution of nigericin (5 μl) was added. To the solution was added dimethyl sulfoxide (5 μl) and the mixture was incubated at 37° C. for 30 minutes. Then 10 mM PIPES-tris buffer solution (450 μl) containing 4 mM ATP disodium was added to initiate the reaction. 30 minutes later, 50% trichloroacetic acid (1 ml) was added to cease the reaction. […] On the other hand, a similar determination was carried out in the absence of potassium chloride, at which the reading of the absorbance is taken as C2. […] In that case, the readings of the absorbance in the presence and absence of potassium chloride are taken as T1 and T2, respectively.
% Inhibition (I) of the inhibiting substance (test compound) is calculated by the following equation.

The conditions of series [1]: background statement; cited from earlier work.

T1 sequence (P19156 2-1034 limits assumed): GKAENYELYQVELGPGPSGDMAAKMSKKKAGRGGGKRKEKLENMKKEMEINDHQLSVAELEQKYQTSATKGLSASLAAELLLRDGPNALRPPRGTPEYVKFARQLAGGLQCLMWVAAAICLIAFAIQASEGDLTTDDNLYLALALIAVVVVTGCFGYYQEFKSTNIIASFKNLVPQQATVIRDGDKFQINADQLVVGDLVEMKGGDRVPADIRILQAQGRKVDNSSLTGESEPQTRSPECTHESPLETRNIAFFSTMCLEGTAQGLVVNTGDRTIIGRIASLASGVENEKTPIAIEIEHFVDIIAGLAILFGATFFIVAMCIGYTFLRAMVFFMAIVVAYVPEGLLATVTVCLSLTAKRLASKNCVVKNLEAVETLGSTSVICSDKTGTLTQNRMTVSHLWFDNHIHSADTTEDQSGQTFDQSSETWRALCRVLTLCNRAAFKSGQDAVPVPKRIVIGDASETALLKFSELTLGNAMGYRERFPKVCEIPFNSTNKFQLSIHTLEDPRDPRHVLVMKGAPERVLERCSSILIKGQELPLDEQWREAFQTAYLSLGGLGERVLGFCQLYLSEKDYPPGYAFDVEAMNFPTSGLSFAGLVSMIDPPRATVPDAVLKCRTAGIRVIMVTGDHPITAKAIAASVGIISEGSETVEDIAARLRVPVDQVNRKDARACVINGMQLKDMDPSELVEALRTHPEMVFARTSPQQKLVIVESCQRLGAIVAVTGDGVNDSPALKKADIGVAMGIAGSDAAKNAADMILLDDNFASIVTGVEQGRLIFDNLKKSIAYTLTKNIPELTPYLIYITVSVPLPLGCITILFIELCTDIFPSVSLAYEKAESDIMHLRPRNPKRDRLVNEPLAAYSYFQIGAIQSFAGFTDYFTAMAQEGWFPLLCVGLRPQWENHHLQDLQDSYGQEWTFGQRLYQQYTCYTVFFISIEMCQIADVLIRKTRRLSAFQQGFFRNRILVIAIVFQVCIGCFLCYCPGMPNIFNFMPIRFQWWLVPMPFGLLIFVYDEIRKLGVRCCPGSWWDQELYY
T1 sequence (P18434 whole entry partner): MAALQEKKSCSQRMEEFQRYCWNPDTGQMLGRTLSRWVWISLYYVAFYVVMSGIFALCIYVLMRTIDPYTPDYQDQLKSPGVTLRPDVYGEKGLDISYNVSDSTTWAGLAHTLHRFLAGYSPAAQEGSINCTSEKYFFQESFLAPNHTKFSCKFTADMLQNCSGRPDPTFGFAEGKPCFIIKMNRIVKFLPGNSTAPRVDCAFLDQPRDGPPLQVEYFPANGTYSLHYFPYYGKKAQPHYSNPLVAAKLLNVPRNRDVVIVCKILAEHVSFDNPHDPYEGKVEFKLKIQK

`c1ccc2c(CCN3CCCCC3)c(CCCCCCc3[nH]c4ccccc4c3CCN3CCCCC3)[nH]c2c1` [Example 1, 3,3'-Di(2-piperidinoethyl)-2,2'-hexamethylenediindole] gave an inhibition at 20 µg/mL against H^+ /K^+ ATPase of 5%. With `c1ccc2[nH]c(CCCCCCc3[nH]c4ccccc4c3CCN3CCCCC3)cc2c1` [Example 2, 3-(2-Piperidinoethyl)-2,2'-hexamethylenediindole], the inhibition at 10 µg/mL at H^+ /K^+ ATPase (10 μg/ml) was determined as 84%.

Consider `c1ccc(CCNCCc2c(CCCCc3cc4ccccc4[nH]3)[nH]c3ccccc23)cc1` [Example 3, 3-(2-Phenethylaminoethyl)-2,2'-tetramethylenediindole], for which the inhibition at 10 µg/mL on H^+ /K^+ ATPase (10 μg/ml) stood at 97%. Turning to `c1ccc2[nH]c(CCCCCCCCc3[nH]c4ccccc4c3CCN3CCCCC3)cc2c1` [Example 4, 3-(2-Piperidinoethyl)-2,2'-octamethylenediindole], the inhibition at 10 µg/mL at H^+ /K^+ ATPase (10 μg/ml) is 91%. Take `c1ccc2[nH]c(CCCCc3[nH]c4ccccc4c3CCN3CCOCC3)cc2c1` [Example 5, 3-(2-Morpholinoethyl)-2,2'-tetramethylenediindole]: the inhibition at 20 µg/mL on H^+ /K^+ ATPase turned out to be 68%. The same measure, in the same setting: the same measure for `c1ccc(CNCCc2c(CCCCc3[nH]c4ccccc4c3CCNCc3ccccc3)[nH]c3ccccc23)cc1` [Example 7, 3,3'-Di(2-benzylaminoethyl)-2,2'-tetramethylenediindole]: 76%; for `c1ccc(CNCCc2c(CCCCc3cc4ccccc4[nH]3)[nH]c3ccccc23)cc1` [Example 8, 3-(2-Benzylaminoethyl)-2,2'-tetramethylenediindole]: 100%. `c1ccc(CCNCCc2c(CCCCc3[nH]c4ccccc4c3CCNCCc3ccccc3)[nH]c3ccccc23)cc1` [Example 13, 3,3'-Di(2-phenethylaminoethyl)-2,2'-tetramethylenediindole]: the inhibition at 5 µg/mL at H^+ /K^+ ATPase (5 μg/ml) came out at 74%.

As to `c1ccc2[nH]c(CCCCc3[nH]c4ccccc4c3CCNCCc3c[nH]c4ccccc34)cc2c1` [Example 16, 3-(2-(2-(3-Indolyl)ethylamino)ethyl)-2,2'-tetramethylenediindole], the inhibition at 5 µg/mL on H^+ /K^+ ATPase (5 μg/ml) turned out to be 71%. Turning to `CN(CCc1c(CCCCc2[nH]c3ccccc3c2CCN(C)Cc2ccccc2)[nH]c2ccccc12)Cc1ccccc1` [Example 17, 3,3'-Di(2-(N-methylbenzylamino)ethyl)-2,2'-tetramethylenediindole], the inhibition at 5 µg/mL at H^+ /K^+ ATPase is 38%. With `CN(CCc1c(CCCCc2cc3ccccc3[nH]2)[nH]c2ccccc12)Cc1ccccc1` [Example 18, 3-(2-(N-Methylbenzylamino)ethyl)-2,2'-tetramethylenediindole], the inhibition at 10 µg/mL on H^+ /K^+ ATPase was 100%. Consider `c1ccc(CCCNCCc2c(CCCCc3[nH]c4ccccc4c3CCNCCCc3ccccc3)[nH]c3ccccc23)cc1` [Example 19, 3,3'-Di(2-(3-phenylpropylamino)ethyl)-2,2'-tetramethylenediindole], for which, at H^+ /K^+ ATPase (10 μg/ml), the inhibition at 10 µg/mL was 98%.

As to `COc1ccc2[nH]c([S+]([O-])Cc3ncc(C)c(OC)c3C)nc2c1` (stereo not shown) [Omeprazole, omeprazole], the “occurrence of side effect (omeprazole)” value in series [1] is “occurrence of carcinoid”.

The values are drawn from patent publication US5326879A, “Indole derivatives” (priority 1991, dated 1994).
